# Measurements published in US9271982B2, “Animal feed supplement comprising ractopamine and caffeine” (Rivalea (Australia) Pty Ltd, priority 2012, dated 2016).
# Counter-ions that a name gives are not always drawn. Like-named read-outs stand apart in the source and are kept apart here.
# Assays:
# [1] = test system: female and immunocastrated male pigs; assay: Study 2: carcass (meat) yield in a subset of carcasses followed through the boning room; format: in vivo, pig; settings: Study 2 subset of carcasses, n = 12 per treatment
# Description: Pigs were slaughtered in a commercial abattoir at the conclusion of the test period. A subset of carcasses (n=12 per treatment) were randomly selected at the abattoir and followed through the boning room for meat yield assessment.
# (§1) Data were subjected to an analysis of variance (ANOVA) with the main effects being dietary treatment and sex. Replicate (start date within week) was included in, the analyses to account for the blocking factor. The experimental unit for all analyses was the pen of pigs. All analyses were performed using Genstat 8th Edition (Payne et al. 2005).
# [2] = test system: female and immunocastrated male pigs; assay: Study 2: RAC+caffeine strategy on heavier weight finishers, growth performance and carcass characteristics; format: in vivo, pig; settings: for ADFI / ADG / FCR: Study 2, RAC 7.5 ppm
# Description: Pigs were selected over a two week period. […] A: Control; B: […] The interpretation of results is then a direct measure of the impact of commercial diets without RAC and commercial diets that do contain RAC. […] Pigs were slaughtered in a commercial abattoir at the conclusion of the test period. A subset of carcasses (n=12 per treatment) were randomly selected at the abattoir and followed through the boning room for meat yield assessment. Data were subjected to an analysis of variance (ANOVA) with the main effects being dietary treatment and sex. Replicate (start date within week) was included in, the analyses to account for the blocking factor. The experimental unit for all analyses was the pen of pigs. All analyses were performed using Genstat 8th Edition (Payne et al. 2005).
# [3] = test system: female and immunocastrated male pigs; assay: Study 3: RAC+caffeine feeding strategy over summer, growth performance and carcase characteristics; format: in vivo, pig
# Procedure: as §1, with “in” for “in,”
# [4] = test system: finisher gilts and Improvac males; assay: Study 1: deaths, removals and animal welfare during the test period
# Description: (§2) Pigs were selected to start on trial over three days during week 20 of the test year. […] All diets were formulated to contain 0.62 g available lysine/MJ DE and 13.8 MJ DE/kg.
# [5] = test system: finisher gilts and Improvac males; format: in vivo, pig; settings: Study 1 (autumn)
# Procedure: as §2
# as §1, with “in” for “in,”, “R W, Harding S A, Genstat Committee 2005 Genstat release 8 reference manual, USN International: Oxford UK)” for “et al. 2005).”
# [6] = test system: female and immunocastrated male pigs; settings: Study 3, 35 day test period
# Procedure: All animals were selected to start the trial on the one day. Prior to the start of the trial, all pigs were offered a commercial grower diet (no Paylean) and had been in their allocated pens from 10 weeks of age. No remixing of pigs occurred before the start of the test period. […] Oxytetracycline was included in water for two days every fortnight for lawsonia control.
# The priming Improvac™ vaccination was administered to the male pigs at 13 weeks of age and the second vaccination at 17 weeks of age (day 0 of the experimental period). Pen weights were recorded at the beginning of the experimental period (day 0, 17 weeks of age) and again at day 14 and day 35 (prior to slaughter). Pen feed Intakes were also recorded over these time periods as measured by feed disappearance and feed conversion efficiency subsequently calculated. All deaths and removals were recorded and taken into account when calculating feed intake and feed efficiency by the adjustment of the number of days that pigs were on trial.
# [7] = caffeine 0.5 kg/t in feed, 0-14 days
# [8] = caffeine 0.5 kg/t in feed, 0-28 days
# [9] = caffeine 0.5 kg/t in feed, 14-28 days
# [10] = Study 2, carcass weight included as covariate
# [11] = Study 1, entire 35 day test period
# [12] = RAC 7.5 ppm / caffeine 0.5 kg/t in feed, 0-14 days
# [13] = RAC 7.5 ppm / caffeine 0.5 kg/t in feed, 0-35 days
# [14] = RAC 7.5 ppm / caffeine 0.5 kg/t in feed, 14-35 days
# [15] = diets fed 35 days, slaughter at 21 wk
smiles,measurement,setting,value
"CC(CCc1ccc(O)cc1)NCC(O)c1ccc(O)cc1 (racemic) [RAC, Ractopamine hydrochloride]",Carcass P2 (carcass weight as covariate),[1],12.2 mm
same,Cold carcass weight,[1],82.6 kg
same,HSCW,[1],93.4 kg
same,Loin depth (carcass weight as covariate),[1],58.2 mm
same,Percentage Yield: Belly,[1],20.7%
same,Percentage Yield: Belly Ribs,[1],11.39%
same,Percentage Yield: Leg 90% chemical lean,[1],6.90%
same,Percentage Yield: Middle 60-65% chemical lean,[1],2.43%
same,Percentage Yield: Middle 80-85% chemical lean,[1],9.72%
same,Percentage Yield: Middle rind plus fat,[1],10.58%
same,Percentage Yield: Middle total fat,[1],7.36%
same,Percentage Yield: Retail leg,[1],35.80%
same,Percentage Yield: Tenderloin,[1],3.65%
same,Percentage Yield: Topside cap off rind less,[1],7.79%
same,Dressing %,[2]; Study 2,77.1%
same,Live weight Day 0,"[2]; Study 2 (22-26 wk), RAC 7.5 ppm, caffeine 0.5 kg/t in feed, day 0 baseline",92.1 kg
same,Live weight Day 14,"[2]; Study 2 (22-26 wk), RAC 7.5 ppm, caffeine 0.5 kg/t in feed, day 14",106 kg
same,Live weight Day 28,"[2]; Study 2 (22-26 wk), RAC 7.5 ppm, caffeine 0.5 kg/t in feed, day 28, in kg (unit assumed)",120.1
same,ADFI,[2]; [7],2.92 kg/day
same,ADG,[2]; [7],0.995 kg/day
same,FCR,[2]; [7],2.98 kg/kg
same,ADFI,[2]; [8],3.04 kg/day
same,ADG,[2]; [8],1.002 kg/day
same,FCR,[2]; [8],3.11 kg/kg
same,ADFI,[2]; [9],3.15 kg/day
same,ADG,[2]; [9],1.008 kg/day
same,FCR,[2]; [9],3.28 kg/kg
same,Carcass P2 (carcass weight as covariate),[2]; [10],11.9 mm
same,Loin depth (carcass weight as covariate),[2]; [10],58.3 mm
same,Carcass P2,"[2]; Study 2, no covariate",12.0 mm
same,Carcass weight,"[2]; Study 2, slaughter at 26 wk",92.9 kg
same,Live weight Day 14,"[3]; Study 3 (summer), RAC 7.5 ppm, caffeine 0.5 kg/t in feed, day 14",79.4 kg
same,Live weight Day 35,"[3]; Study 3 (summer), RAC 7.5 ppm, caffeine 0.5 kg/t in feed, day 35",100.5 kg
same,Average daily feed intake,"[3]; Study 3 (summer), Day 0-14",2.36 kg/day
same,Average daily gain,"[3]; Study 3 (summer), Day 0-14",1.132 kg/day
same,Feed conversion ratio,"[3]; Study 3 (summer), Day 0-14",2.15 kg/kg
same,Average daily feed intake,"[3]; Study 3 (summer), Day 0-35",2.62 kg/day
same,Average daily gain,"[3]; Study 3 (summer), Day 0-35",1.056 kg/day
same,Feed conversion ratio,"[3]; Study 3 (summer), Day 0-35",2.48 kg/kg
same,Average daily feed intake,"[3]; Study 3 (summer), Day 14-35",2.79 kg/day
same,Average daily gain,"[3]; Study 3 (summer), Day 14-35",1.004 kg/day
same,Feed conversion ratio,"[3]; Study 3 (summer), Day 14-35",2.80 kg/kg
same,Loin muscle depth,"[3]; Study 3 (summer), carcase",58.4 mm
same,P2,"[3]; Study 3 (summer), carcase, carcase weight not taken into account",11.3 mm
same,Live weight Day 0,"[3]; Study 3 (summer, 17-22 wk), RAC 7.5 ppm, caffeine 0.5 kg/t in feed, day 0 baseline",63.5 kg
same,"Response (feed efficiency, daily gain, carcass composition) in words","[3]; Study 3, RAC at 7.5 ppm over the summer period",negligible
same,Average feed consumed,"[3]; Study 3, entire test period",2.6 kg feed/day
same,"Feed efficiency, more efficient than the control animals","[3]; Study 3, initial 14 day period, not significant",approximately 4%
same,Average feed intake,"[3]; Study 3, initial 14 days",2.36 kg/day
same,Off trial: Lame (number of pigs),"[4]; Study 1, 0-14 days",1
same,Off trial: Meningitis (number of pigs),"[4]; Study 1, 0-14 days",1
same,Off trial: Wound (number of pigs),"[4]; Study 1, 0-14 days",1
same,TOTAL deaths and removals (number of pigs),"[4]; Study 1, 0-14 days",3
same,Deaths: Hernia (number of pigs),"[4]; Study 1, 14-35 days",1
same,Deaths: Ileitis (number of pigs),"[4]; Study 1, 14-35 days",1
same,Off trial: Lame (number of pigs),"[4]; Study 1, 14-35 days",1
same,TOTAL deaths and removals (number of pigs),"[4]; Study 1, 14-35 days",3
same,Deaths (dead/total pigs in treatment group),[4]; [11],2/298
same,"Deaths, percentage of pigs",[4]; [11],0.67%
same,ADFI,[5]; [12],2.72 kg/day
same,FCR,[5]; [12],2.34 kg/kg
same,ADFI,[5]; [13],2.96 kg/day
same,FCR,[5]; [13],2.67 kg/kg
same,ADFI,[5]; [14],3.13 kg/day
same,FCR,[5]; [14],2.92 kg/kg
same,Live weight Day 0,"[5]; RAC 7.5 ppm / caffeine 0.5 kg/t in feed, day 0 baseline, 16 wk of age",61.2 kg
same,Live weight Day 14,"[5]; RAC 7.5 ppm / caffeine 0.5 kg/t in feed, day 14",77.6 kg
same,Live weight Day 35,"[5]; RAC 7.5 ppm / caffeine 0.5 kg/t in feed, day 35",100.1 kg
same,Dressing %,[5]; diets fed 35 days,77.6%
same,Carcass P2 (carcass weight as covariate),[5]; [15],10.9 mm
same,Carcass weight,[5]; [15],77.6
same,% pigs P2 >12 mm (carcass weight as covariate),"[5]; diets fed 35 days, carcass weight included as covariate",26.4%
same,% pigs P2 >12 mm,"[5]; diets fed 35 days, no covariate",29.0%
same,Combined deaths and removals (number/total pigs),[6],5/228
same,"Combined deaths and removals, percentage",[6],2.2%
same,Deaths: APP (number of pigs),[6],2
same,Deaths: Lame (number of pigs),[6],2
same,Removals: Unthrifty (number of pigs),[6],1
